In US20250171438A1 (Agios Pharmaceuticals, Inc., priority 2022, published 2025) one finds AC50 data, which are given here for 38 compounds.

The assay addresses T1, human PAH with the R408W mutation (Homo sapiens, UniProt P00439, R408W).
T1 construct: expressed in transfected cells
T1 sequence (P00439 1-452 R408W): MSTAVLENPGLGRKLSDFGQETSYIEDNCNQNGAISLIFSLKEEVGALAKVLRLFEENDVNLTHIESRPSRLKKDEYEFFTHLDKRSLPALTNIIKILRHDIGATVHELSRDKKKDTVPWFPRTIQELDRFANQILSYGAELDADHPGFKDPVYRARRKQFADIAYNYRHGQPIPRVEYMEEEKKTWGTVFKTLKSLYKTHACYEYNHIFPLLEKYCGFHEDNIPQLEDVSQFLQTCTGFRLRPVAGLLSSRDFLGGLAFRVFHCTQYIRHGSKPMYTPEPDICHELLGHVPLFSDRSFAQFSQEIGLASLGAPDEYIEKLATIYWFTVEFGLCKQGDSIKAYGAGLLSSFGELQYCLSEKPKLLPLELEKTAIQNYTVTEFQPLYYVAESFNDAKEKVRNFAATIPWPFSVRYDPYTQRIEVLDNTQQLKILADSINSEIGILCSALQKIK
As to the kind of experiment: Cell Based Phenylalanine Flux Assay. Particulars: A375 cells expressing human R408W PAH, 13C-Tyrosine by LC-MS, average where tested multiple times, read-out: AC50.

Like-named read-outs stand apart in the source and are kept apart here.

Take `O=C(c1cnc(-c2ccc(C(F)(F)F)nc2)s1)N1CCc2[nH]cnc2[C@@H]1c1nc2ccccc2s1` [Example 1355, (R)-(4-(benzo[d]thiazol-2-yl)-6,7-dihydro-1H-imidazo[4,5-c]pyridin-5(4H)-yl)(2-(6-(trifluoromethyl)pyridin-3-yl)thiazol-5-yl)methanone]: where the note is “24 hrs compound incubation”, the AC50 (usually the concentration giving half of the maximal activity seen) was 1000 to 5000 nM.
Consider `O=C(c1nnc(CCCN2CCOCC2)o1)N1CCc2[nH]cnc2C1c1nc2ccccc2s1` (centres unmarked), for which the AC50 (24 hrs with compound) was 1000 to 5000 nM.
Regarding `O=C(c1cnn2cc(CN3CCOCC3)ccc12)N1CCc2[nH]cnc2[C@@H]1c1nc2ccccc2s1` [Example 2156, (R)-(4-(benzo[d]thiazol-2-yl)-6,7-dihydro-1H-imidazo[4,5-c]pyridin-5(4H)-yl)(6-(morpholinomethyl)pyrazolo[1,5-a]pyridin-3-yl)methanone], the AC50 (24 hrs compound incubation) is more than 5000 nM.
On to `CC(C)(O)c1cc(C(=O)N2CCc3[nH]cnc3C2c2nc3c(F)cccc3s2)no1` (centres unmarked), for which the AC50 (24 hrs with compound) is more than 5000 nM.
Turning to `O=C(Cc1nc(C(F)(F)F)cs1)N1CCc2[nH]cnc2C1c1nc2ccc(Cl)cc2[nH]1` (centres unmarked), the concentration at half-maximal activity (AC50) (24 hrs with compound) was 1000 to 5000 nM.
`CC(C)(O)c1nc(C(F)(F)F)c(C(=O)N2CCCc3[nH]cnc3[C@@H]2c2nc3ccccc3s2)o1` [Example 2124, (R)-(4-(benzo[d]thiazol-2-yl)-7,8-dihydroimidazo[4,5-c]azepin-5(1H,4H,6H)-yl)(2-(2-hydroxypropan-2-yl)-4-(trifluoromethyl)oxazol-5-yl)methanone]: the AC50 (24 hrs compound incubation) is 1000 to 5000 nM.
In the case of `O=C(N1CC(F)C1)N1CCc2[nH]cnc2[C@@H]1c1nc2ccccc2s1` [Example 1690, (R)-(4-(benzo[d]thiazol-2-yl)-6,7-dihydro-1H-imidazo[4,5-c]pyridin-5(4H)-yl)(3-fluoroazetidin-1-yl)methanone], under “24 hrs compound incubation”, the AC50 lay within 1000 to 5000 nM.
For `O=C(CCCc1nccs1)N1CCc2[nH]cnc2[C@H]1c1nc2ccccc2[nH]1` [(S)-1-(4-(1H-benzo[d]imidazol-2-yl)-1,4,6,7-tetrahydro-5H-imidazo[4,5-c]pyridin-5-yl)-4-(thiazol-2-yl)butan-1-one], the AC50 (24 hrs with compound) was in the range of 1000 to 5000 nM.
In the case of `O=C(c1oc(C2(O)CC2)nc1C(F)F)N1CCc2[nH]cnc2[C@@H]1c1nc2ccccc2s1` [Example 2056, (R)-(4-(benzo[d]thiazol-2-yl)-6,7-dihydro-1H-imidazo[4,5-c]pyridin-5(4H)-yl)(4-(difluoromethyl)-2-(1-hydroxycyclopropyl)oxazol-5-yl)methanone], the AC50 (24 hrs compound incubation) lay within 1000 to 5000 nM.
Still for that read-out and setting: in the case of `O=C(c1ocnc1C(F)(F)F)N1CCc2[nH]cnc2[C@H]1c1nc2c(F)cccc2s1` [Example 1493, (S)-(4-(4-fluorobenzo[d]thiazol-2-yl)-6,7-dihydro-1H-imidazo[4,5-c]pyridin-5(4H)-yl)(4-(trifluoromethyl)oxazol-5-yl)methanone] it was less than 500 nM.
For the compound `Cc1ccc2c(C(=O)N3CCc4[nH]cnc4C3c3nc4ccc(Br)cc4[nH]3)cnn2c1` (centres unmarked), where the note is “24 hrs with compound”, the AC50 is more than 5000 nM.
As to `Cn1nc(N)cc1C(=O)N1CCc2[nH]cnc2C1c1nc2ccccc2s1` (centres unmarked), the AC50 (24 hrs with compound) was in the range of 1000 to 5000 nM.
As to `CC(C)(O)c1ncc(C(=O)N2CCc3[nH]cnc3[C@H]2c2nc3c(F)cccc3s2)o1` [Example 1483, (S)-(4-(4-fluorobenzo[d]thiazol-2-yl)-6,7-dihydro-1H-imidazo[4,5-c]pyridin-5(4H)-yl)(2-(2-hydroxypropan-2-yl)oxazol-5-yl)methanone], the concentration at half-maximal activity (AC50) (24 hrs compound incubation) lay in the range of 500 to 1000 nM.
As for `O=C(c1cn(CC2CC(F)(F)C2)nc1Cl)N1CCc2[nH]cnc2[C@H]1c1nc2c(F)cccc2s1` [Example 2003, (S)-(3-chloro-1-((3,3-difluorocyclobutyl)methyl)-1H-pyrazol-4-yl)(4-(4-fluorobenzo[d]thiazol-2-yl)-6,7-dihydro-1H-imidazo[4,5-c]pyridin-5(4H)-yl)methanone], the AC50 (24 hrs compound incubation) was less than 500 nM.
On to `Cc1nnc(CC(=O)N2CCc3[nH]cnc3[C@H]2c2nc3ccccc3[nH]2)o1` (single isomer, unassigned), for which the AC50 (24 hrs with compound) is more than 5000 nM.
On to `Cc1nc(N2CCOCC2)oc1C(=O)N1CCc2[nH]cnc2C1c1nc2c(F)cccc2s1` (centres unmarked), for which, where the note is “24 hrs with compound”, the AC50 is more than 5000 nM.
Consider `O=C(c1nc2ccccc2[nH]1)N1CCc2[nH]cnc2[C@H]1c1nc2ccccc2s1` [Example 1131], for which the AC50 (24 hrs compound incubation) lay within 500 to 1000 nM.
In the case of `C[C@H](O)c1nc(C(F)F)c(C(=O)N2CCc3[nH]cnc3[C@@H]2c2nc3c(F)cccc3s2)o1` [Example 1962, (4-(difluoromethyl)-2-((S)-1-hydroxyethyl)oxazol-5-yl)((R)-4-(4-fluorobenzo[d]thiazol-2-yl)-6,7-dihydro-1H-imidazo[4,5-c]pyridin-5(4H)-yl)methanone], under “24 hrs compound incubation”, the AC50 fell in the range of 1000 to 5000 nM.
In the case of `O=C(c1ocnc1C(F)F)N1CCc2[nH]cnc2[C@H]1c1nc2c(F)cccc2s1` [Example 1615], where the note is “24 hrs compound incubation”, the half-maximal activity concentration (AC50) is less than 500 nM.
As to `Cc1ccc2c(C(=O)N3CCc4[nH]cnc4[C@@H]3c3nc4c(C)cccc4s3)cnn2c1` [Example 1296, (R)-(4-(4-methylbenzo[d]thiazol-2-yl)-6,7-dihydro-1H-imidazo[4,5-c]pyridin-5(4H)-yl)(6-methylpyrazolo[1,5-a]pyridin-3-yl)methanone], the half-maximal activity concentration (AC50) (24 hrs compound incubation) lay within 1000 to 5000 nM.
On to `O=C(c1cnn2ccc(Br)cc12)N1CCc2[nH]cnc2[C@H]1c1nc2cc(F)ccc2s1` [Example 1281], for which the AC50 (24 hrs compound incubation) lay within 500 to 1000 nM.
As to `O=C(c1ncn2ccccc12)N1CCc2[nH]cnc2[C@@H]1c1nc2cccc(F)c2s1` [Example 1267, (R)-(4-(7-fluorobenzo[d]thiazol-2-yl)-6,7-dihydro-1H-imidazo[4,5-c]pyridin-5(4H)-yl)(imidazo[1,5-a]pyridin-1-yl)methanone], the AC50 (24 hrs compound incubation) is 1000 to 5000 nM.
`O=C(c1nccs1)N1CCc2[nH]cnc2[C@@H]1c1nc2ccc(Cl)cc2[nH]1` (single isomer, unassigned): the AC50 (24 hrs with compound) is more than 5000 nM.
As for `O=C(c1cnn2ccc(Cl)cc12)N1CCc2[nH]cnc2[C@@H]1c1nc2cccc(F)c2s1` [Example 1302, (R)-(5-chloropyrazolo[1,5-a]pyridin-3-yl)(4-(7-fluorobenzo[d]thiazol-2-yl)-6,7-dihydro-1H-imidazo[4,5-c]pyridin-5(4H)-yl)methanone], the AC50 (24 hrs compound incubation) is less than 500 nM.
As for `C=Cc1ccc2c(C(=O)N3CCc4[nH]cnc4[C@@H]3c3nc4ccccc4s3)cnn2c1` [Example 1232, (R)-(4-(benzo[d]thiazol-2-yl)-6,7-dihydro-1H-imidazo[4,5-c]pyridin-5(4H)-yl)(6-vinylpyrazolo[1,5-a]pyridin-3-yl)methanone], where the note is “24 hrs compound incubation”, the AC50 lay within 1000 to 5000 nM.
Consider `CC1CN(C(=O)c2nnc(C(C)(C)O)o2)C(c2nc3ccccc3s2)c2nc[nH]c21` (centres unmarked), for which, under “24 hrs with compound”, the AC50 lay in the range of 1000 to 5000 nM.
On to `O=C(c1nnc(-c2ccc(F)cc2F)o1)N1CCc2[nH]cnc2[C@@H]1c1nc2ccccc2s1` [Example 1812, (R)-(4-(benzo[d]thiazol-2-yl)-6,7-dihydro-1H-imidazo[4,5-c]pyridin-5(4H)-yl)(5-(2,4-difluorophenyl)-1,3,4-oxadiazol-2-yl)methanone], for which the AC50 (24 hrs compound incubation) lay in the range of 500 to 1000 nM.
As for `O=C(c1nnc(-c2cc(C(F)(F)F)ccn2)o1)N1CCc2[nH]cnc2[C@H]1c1nc2ccccc2s1` [Example 1889, [(4S)-4-(1,3-benzothiazol-2-yl)-1,4,6,7-tetrahydroimidazo[4,5-c]pyridin-5-yl]-[5-[4-(trifluoromethyl)-2-pyridyl]-1,3,4-oxadiazol-2-yl]methanone], the AC50 (24 hrs compound incubation) is less than 500 nM.
Consider `O=C(c1cnn2ccccc12)N1CCc2[nH]cnc2C1c1nc2ccc(F)cc2[nH]1` (centres unmarked), for which the concentration at half-maximal activity (AC50) (24 hrs with compound) is more than 5000 nM.
The same measure, in the same setting: the same measure for `O=C(c1cnco1)N1CC2(CC2)c2[nH]cnc2C1c1nc2c(F)cccc2s1` (centres unmarked): more than 5000 nM.
As for `CN1CCN(c2nc(Br)c(C(=O)N3CCc4[nH]cnc4[C@H]3c3nc4c(F)cccc4s3)o2)CC1` [Example 2031, (S)-(4-bromo-2-(4-methylpiperazin-1-yl)oxazol-5-yl)(4-(4-fluorobenzo[d]thiazol-2-yl)-6,7-dihydro-1H-imidazo[4,5-c]pyridin-5(4H)-yl)methanone], where the note is “24 hrs compound incubation”, the AC50 is less than 500 nM.
On to `CC(C)(O)c1nc(C(F)(F)F)c(C(=O)N2CCCc3[nH]cnc3[C@H]2c2nc3ccccc3s2)o1` [Example 2123, (S)-(4-(benzo[d]thiazol-2-yl)-7,8-dihydroimidazo[4,5-c]azepin-5(1H,4H,6H)-yl)(2-(2-hydroxypropan-2-yl)-4-(trifluoromethyl)oxazol-5-yl)methanone], for which, under “24 hrs compound incubation”, the AC50 lay within 1000 to 5000 nM.
Still for that read-out and setting: the same measure for `O=C(c1cnn2ccccc12)N1CCc2[nH]cnc2[C@H]1c1nc2ccccc2s1` [Example 1009]: less than 500 nM.
As to `O=C(Nc1ccc(F)cc1)N1CCc2[nH]cnc2C1c1nc2ccccc2s1` (centres unmarked), the AC50 (24 hrs with compound) lay within 1000 to 5000 nM.
Regarding `CCc1nnc(CCC(=O)N2CCc3[nH]cnc3[C@H]2c2nc3ccccc3[nH]2)s1` [(S)-1-(4-(1H-benzo[d]imidazol-2-yl)-1,4,6,7-tetrahydro-5H-imidazo[4,5-c]pyridin-5-yl)-3-(5-ethyl-1,3,4-thiadiazol-2-yl)propan-1-one], the AC50 (24 hrs with compound) lay within 1000 to 5000 nM.
With `O=C(c1nc2ccncc2s1)N1CCc2[nH]cnc2C1c1nc2ccccc2[nH]1` (centres unmarked), where the note is “24 hrs with compound”, the concentration at half-maximal activity (AC50) was more than 5000 nM.
As for `O=C(c1ocnc1C(F)F)N1CCc2[nH]cnc2[C@H]1c1nc2ccccc2s1` [Example 1539], the concentration at half-maximal activity (AC50) (24 hrs compound incubation) was less than 500 nM.
Turning to `O=C(c1cnn2ccccc12)N1CCc2nc[nH]c2[C@H]1c1nc2c(F)cccc2s1` [Example 1111, (S)-(4-(4-fluorobenzo[d]thiazol-2-yl)-6,7-dihydro-3H-imidazo[4,5-c]pyridin-5(4H)-yl)(pyrazolo[1,5-a]pyridin-3-yl)methanone], the AC50 (24 hrs compound incubation) lay within 500 to 1000 nM.
